Test results published in paper PMC10905675, “INX-315, a Selective CDK2 Inhibitor, Induces Cell Cycle Arrest and Senescence in Solid Tumors” (Cancer Discovery, 2023).

Experiments:
Assay in all cases: SelectScreen ZLYTE
Assay type in all cases: biochemical
Settings in all cases: INX-0315 at 100nM
MERTK (cMER) = molecular target: T1, MERTK (cMER) (Homo sapiens, UniProt Q12866)
T1 construct: purchased Thermo Fisher Scientific SelectScreen (plus Nanosyn / Reaction Biology for CDK/cyclin lines)
Description: (§1) INX-315 was first evaluated in the SelectScreen Biochemical Kinase Profiling at Thermo Fisher Scientific (Madison, WI). The primary screen consisted of INX-315 dosed at a single concentration of 100 nmol/L in 1% DMSO across each platform within the SelectScreen array of assays, LanthaScreen Eu Kinase Binding Assay; AdaptaScreen; and Z'LyteScreen using preestablished conditions at Thermo Fisher Scientific as shown in Supplementary Table S2. […] The follow-up screen consisted of 10-point dose–response curves for INX-315 from 1 µmol/L to 0.0495 nmol/L.

CDK18/cyclin Y = molecular target: T2, CDK18/cyclin Y (Homo sapiens, UniProt Q07002)
T2 construct: purchased Thermo Fisher Scientific SelectScreen (plus Nanosyn / Reaction Biology for CDK/cyclin lines)
Description: as §1

MARK1 (MARK) = molecular target: T3, MARK1 (MARK) (Homo sapiens, UniProt Q9P0L2)
T3 construct: purchased Thermo Fisher Scientific SelectScreen (plus Nanosyn / Reaction Biology for CDK/cyclin lines)
Description: as §1

PRKCI (PKC iota) = molecular target: T4, PRKCI (PKC iota) (Homo sapiens, UniProt P41743)
T4 construct: purchased Thermo Fisher Scientific SelectScreen (plus Nanosyn / Reaction Biology for CDK/cyclin lines)
Description: as §1

JAK2 = molecular target: T5, JAK2 (Homo sapiens, UniProt O60674)
T5 construct: purchased Thermo Fisher Scientific SelectScreen (plus Nanosyn / Reaction Biology for CDK/cyclin lines)
Description: as §1

PRKCG (PKC gamma) = molecular target: T6, PRKCG (PKC gamma) (Homo sapiens, UniProt P05129)
T6 construct: purchased Thermo Fisher Scientific SelectScreen (plus Nanosyn / Reaction Biology for CDK/cyclin lines)
Description: as §1

CSNK2A2 (CK2 alpha 2) = molecular target: T7, CSNK2A2 (CK2 alpha 2) (Homo sapiens, UniProt P19784)
T7 construct: purchased Thermo Fisher Scientific SelectScreen (plus Nanosyn / Reaction Biology for CDK/cyclin lines)
T7 sequence (P19784 whole entry): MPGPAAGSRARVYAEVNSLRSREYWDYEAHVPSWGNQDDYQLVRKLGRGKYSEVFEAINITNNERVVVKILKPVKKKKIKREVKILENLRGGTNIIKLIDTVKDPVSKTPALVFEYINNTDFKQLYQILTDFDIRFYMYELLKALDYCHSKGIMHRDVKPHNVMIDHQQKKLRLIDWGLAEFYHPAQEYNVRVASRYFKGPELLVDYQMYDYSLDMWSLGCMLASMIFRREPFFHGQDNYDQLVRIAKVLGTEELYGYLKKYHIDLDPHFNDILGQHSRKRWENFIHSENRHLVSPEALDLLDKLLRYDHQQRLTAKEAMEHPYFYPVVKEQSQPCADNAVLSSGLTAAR
Description: as §1

CDK17/cyclin Y = molecular target: T8, CDK17/cyclin Y (Homo sapiens, UniProt Q00537)
T8 construct: purchased Thermo Fisher Scientific SelectScreen (plus Nanosyn / Reaction Biology for CDK/cyclin lines)
Description: as §1

EGFR (ErbB1) = molecular target: T9, EGFR (ErbB1) (Homo sapiens, UniProt P00533)
T9 construct: purchased Thermo Fisher Scientific SelectScreen (plus Nanosyn / Reaction Biology for CDK/cyclin lines)
Description: as §1

PDGFRA (PDGFR alpha) = molecular target: T10, PDGFRA (PDGFR alpha) (Homo sapiens, UniProt P16234)
T10 construct: purchased Thermo Fisher Scientific SelectScreen (plus Nanosyn / Reaction Biology for CDK/cyclin lines)
Description: as §1

GRK5 = molecular target: T11, GRK5 (Homo sapiens, UniProt P34947)
T11 construct: purchased Thermo Fisher Scientific SelectScreen (plus Nanosyn / Reaction Biology for CDK/cyclin lines)
Description: as §1

PTK2 (FAK) = molecular target: T12, PTK2 (FAK) (Homo sapiens, UniProt Q05397)
T12 construct: purchased Thermo Fisher Scientific SelectScreen (plus Nanosyn / Reaction Biology for CDK/cyclin lines)
Description: as §1

MELK = molecular target: T13, MELK (Homo sapiens, UniProt Q14680)
T13 construct: purchased Thermo Fisher Scientific SelectScreen (plus Nanosyn / Reaction Biology for CDK/cyclin lines)
T13 sequence (Q14680 whole entry): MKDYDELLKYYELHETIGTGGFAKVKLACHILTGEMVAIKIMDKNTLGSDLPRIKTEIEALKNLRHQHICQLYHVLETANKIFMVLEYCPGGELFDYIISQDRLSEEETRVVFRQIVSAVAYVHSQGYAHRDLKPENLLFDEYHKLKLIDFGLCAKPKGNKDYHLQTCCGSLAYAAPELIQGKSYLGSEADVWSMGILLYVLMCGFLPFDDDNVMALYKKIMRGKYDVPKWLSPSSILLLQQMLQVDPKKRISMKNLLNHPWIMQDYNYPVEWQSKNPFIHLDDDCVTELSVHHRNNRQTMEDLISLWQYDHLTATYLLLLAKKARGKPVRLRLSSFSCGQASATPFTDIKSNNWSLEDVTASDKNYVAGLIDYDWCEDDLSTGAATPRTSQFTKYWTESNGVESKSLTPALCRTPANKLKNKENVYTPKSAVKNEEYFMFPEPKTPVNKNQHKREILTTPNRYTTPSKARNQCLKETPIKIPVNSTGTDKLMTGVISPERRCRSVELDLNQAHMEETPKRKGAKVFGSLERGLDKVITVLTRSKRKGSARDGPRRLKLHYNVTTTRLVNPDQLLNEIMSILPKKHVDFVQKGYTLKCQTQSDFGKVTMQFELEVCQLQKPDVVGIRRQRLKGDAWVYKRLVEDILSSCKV
Description: as §1

CHEK2 (CHK2) = molecular target: T14, CHEK2 (CHK2) (Homo sapiens, UniProt O96017)
T14 construct: purchased Thermo Fisher Scientific SelectScreen (plus Nanosyn / Reaction Biology for CDK/cyclin lines)
Description: as §1

PAK2 (PAK65) = molecular target: T15, PAK2 (PAK65) (Homo sapiens, UniProt Q13177)
T15 construct: purchased Thermo Fisher Scientific SelectScreen (plus Nanosyn / Reaction Biology for CDK/cyclin lines)
Description: as §1

RPS6KB1 (p70S6K) = molecular target: T16, RPS6KB1 (p70S6K) (Homo sapiens, UniProt P23443)
T16 construct: purchased Thermo Fisher Scientific SelectScreen (plus Nanosyn / Reaction Biology for CDK/cyclin lines)
Description: as §1

PTK6 (Brk) = molecular target: T17, PTK6 (Brk) (Homo sapiens, UniProt Q13882)
T17 construct: purchased Thermo Fisher Scientific SelectScreen (plus Nanosyn / Reaction Biology for CDK/cyclin lines)
Description: as §1

ABL1 T315I = molecular target: T18, ABL1 T315I (Homo sapiens, UniProt P00519, T315I)
T18 construct: purchased Thermo Fisher Scientific SelectScreen (plus Nanosyn / Reaction Biology for CDK/cyclin lines)
Description: as §1

IKBKE (IKK epsilon) = molecular target: T19, IKBKE (IKK epsilon) (Homo sapiens, UniProt Q14164)
T19 construct: purchased Thermo Fisher Scientific SelectScreen (plus Nanosyn / Reaction Biology for CDK/cyclin lines)
Description: as §1

FLT1 (VEGFR1) = molecular target: T20, FLT1 (VEGFR1) (Homo sapiens, UniProt P17948)
T20 construct: purchased Thermo Fisher Scientific SelectScreen (plus Nanosyn / Reaction Biology for CDK/cyclin lines)
Description: as §1

EPHB1 = molecular target: T21, EPHB1 (Homo sapiens, UniProt P54762)
T21 construct: purchased Thermo Fisher Scientific SelectScreen (plus Nanosyn / Reaction Biology for CDK/cyclin lines)
Description: as §1

PRKCD (PKC delta) = molecular target: T22, PRKCD (PKC delta) (Homo sapiens, UniProt Q05655)
T22 construct: purchased Thermo Fisher Scientific SelectScreen (plus Nanosyn / Reaction Biology for CDK/cyclin lines)
T22 sequence (Q05655 whole entry): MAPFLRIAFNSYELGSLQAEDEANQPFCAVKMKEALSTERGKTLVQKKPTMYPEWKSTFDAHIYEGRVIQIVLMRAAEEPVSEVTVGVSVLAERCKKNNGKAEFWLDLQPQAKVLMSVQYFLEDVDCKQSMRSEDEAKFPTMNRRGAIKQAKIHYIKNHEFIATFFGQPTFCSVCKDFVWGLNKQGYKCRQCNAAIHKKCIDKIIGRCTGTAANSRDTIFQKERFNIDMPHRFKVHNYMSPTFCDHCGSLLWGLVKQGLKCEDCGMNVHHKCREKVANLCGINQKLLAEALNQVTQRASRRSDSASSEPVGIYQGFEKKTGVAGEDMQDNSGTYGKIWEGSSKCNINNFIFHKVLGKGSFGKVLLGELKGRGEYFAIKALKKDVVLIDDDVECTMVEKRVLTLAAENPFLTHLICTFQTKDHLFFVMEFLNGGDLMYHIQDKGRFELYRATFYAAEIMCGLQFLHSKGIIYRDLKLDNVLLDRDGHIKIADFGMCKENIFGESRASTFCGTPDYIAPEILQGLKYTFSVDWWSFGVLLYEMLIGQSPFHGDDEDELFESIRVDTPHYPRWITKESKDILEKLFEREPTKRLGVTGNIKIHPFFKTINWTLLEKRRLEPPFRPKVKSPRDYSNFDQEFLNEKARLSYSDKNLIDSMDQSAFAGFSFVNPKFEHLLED
Description: as §1

CSK = molecular target: T23, CSK (Homo sapiens, UniProt P41240)
T23 construct: purchased Thermo Fisher Scientific SelectScreen (plus Nanosyn / Reaction Biology for CDK/cyclin lines)
Description: as §1

AURKB (Aurora B) = molecular target: T24, AURKB (Aurora B) (Homo sapiens, UniProt Q96GD4)
T24 construct: purchased Thermo Fisher Scientific SelectScreen (plus Nanosyn / Reaction Biology for CDK/cyclin lines)
Description: as §1

CAMK2A (CaMKII alpha) = molecular target: T25, CAMK2A (CaMKII alpha) (Homo sapiens, UniProt Q9UQM7)
T25 construct: purchased Thermo Fisher Scientific SelectScreen (plus Nanosyn / Reaction Biology for CDK/cyclin lines)
Description: as §1

MAP3K9 (MLK1) = molecular target: T26, MAP3K9 (MLK1) (Homo sapiens, UniProt P80192)
T26 construct: purchased Thermo Fisher Scientific SelectScreen (plus Nanosyn / Reaction Biology for CDK/cyclin lines)
T26 sequence (P80192 whole entry): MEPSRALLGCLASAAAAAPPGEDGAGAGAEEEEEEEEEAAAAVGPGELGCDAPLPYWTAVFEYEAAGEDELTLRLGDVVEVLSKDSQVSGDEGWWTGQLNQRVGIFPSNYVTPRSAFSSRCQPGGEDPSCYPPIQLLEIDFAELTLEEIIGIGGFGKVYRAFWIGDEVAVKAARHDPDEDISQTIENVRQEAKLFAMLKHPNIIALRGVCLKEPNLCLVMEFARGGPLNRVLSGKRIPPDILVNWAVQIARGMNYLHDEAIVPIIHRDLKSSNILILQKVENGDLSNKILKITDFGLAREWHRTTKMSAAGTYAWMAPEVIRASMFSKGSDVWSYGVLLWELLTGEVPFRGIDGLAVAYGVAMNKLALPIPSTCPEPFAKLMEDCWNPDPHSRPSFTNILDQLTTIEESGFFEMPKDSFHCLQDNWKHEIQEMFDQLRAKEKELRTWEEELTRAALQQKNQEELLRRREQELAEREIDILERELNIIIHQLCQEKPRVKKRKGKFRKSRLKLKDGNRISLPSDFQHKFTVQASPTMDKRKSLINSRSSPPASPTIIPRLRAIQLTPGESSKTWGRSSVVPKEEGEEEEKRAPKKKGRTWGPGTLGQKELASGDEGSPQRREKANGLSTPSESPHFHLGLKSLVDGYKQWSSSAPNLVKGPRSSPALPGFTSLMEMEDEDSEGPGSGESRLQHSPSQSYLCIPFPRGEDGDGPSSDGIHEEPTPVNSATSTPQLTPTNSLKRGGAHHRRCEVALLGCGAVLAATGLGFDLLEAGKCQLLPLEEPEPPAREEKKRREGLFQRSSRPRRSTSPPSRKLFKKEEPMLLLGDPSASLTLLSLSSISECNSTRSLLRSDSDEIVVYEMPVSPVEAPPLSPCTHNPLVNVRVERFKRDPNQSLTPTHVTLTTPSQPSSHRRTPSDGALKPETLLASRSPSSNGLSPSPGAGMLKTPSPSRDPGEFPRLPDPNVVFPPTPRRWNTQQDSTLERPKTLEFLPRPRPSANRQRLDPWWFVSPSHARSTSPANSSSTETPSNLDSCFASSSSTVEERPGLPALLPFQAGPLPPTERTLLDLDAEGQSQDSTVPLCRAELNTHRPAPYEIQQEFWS
Description: as §1

NTRK2 (TRKB) = molecular target: T27, NTRK2 (TRKB) (Homo sapiens, UniProt Q16620)
T27 construct: purchased Thermo Fisher Scientific SelectScreen (plus Nanosyn / Reaction Biology for CDK/cyclin lines)
Description: as §1

KIT T670I = molecular target: T28, KIT T670I (Homo sapiens, UniProt P10721, T670I)
T28 construct: purchased Thermo Fisher Scientific SelectScreen (plus Nanosyn / Reaction Biology for CDK/cyclin lines)
T28 sequence (P10721 26-976 T670I): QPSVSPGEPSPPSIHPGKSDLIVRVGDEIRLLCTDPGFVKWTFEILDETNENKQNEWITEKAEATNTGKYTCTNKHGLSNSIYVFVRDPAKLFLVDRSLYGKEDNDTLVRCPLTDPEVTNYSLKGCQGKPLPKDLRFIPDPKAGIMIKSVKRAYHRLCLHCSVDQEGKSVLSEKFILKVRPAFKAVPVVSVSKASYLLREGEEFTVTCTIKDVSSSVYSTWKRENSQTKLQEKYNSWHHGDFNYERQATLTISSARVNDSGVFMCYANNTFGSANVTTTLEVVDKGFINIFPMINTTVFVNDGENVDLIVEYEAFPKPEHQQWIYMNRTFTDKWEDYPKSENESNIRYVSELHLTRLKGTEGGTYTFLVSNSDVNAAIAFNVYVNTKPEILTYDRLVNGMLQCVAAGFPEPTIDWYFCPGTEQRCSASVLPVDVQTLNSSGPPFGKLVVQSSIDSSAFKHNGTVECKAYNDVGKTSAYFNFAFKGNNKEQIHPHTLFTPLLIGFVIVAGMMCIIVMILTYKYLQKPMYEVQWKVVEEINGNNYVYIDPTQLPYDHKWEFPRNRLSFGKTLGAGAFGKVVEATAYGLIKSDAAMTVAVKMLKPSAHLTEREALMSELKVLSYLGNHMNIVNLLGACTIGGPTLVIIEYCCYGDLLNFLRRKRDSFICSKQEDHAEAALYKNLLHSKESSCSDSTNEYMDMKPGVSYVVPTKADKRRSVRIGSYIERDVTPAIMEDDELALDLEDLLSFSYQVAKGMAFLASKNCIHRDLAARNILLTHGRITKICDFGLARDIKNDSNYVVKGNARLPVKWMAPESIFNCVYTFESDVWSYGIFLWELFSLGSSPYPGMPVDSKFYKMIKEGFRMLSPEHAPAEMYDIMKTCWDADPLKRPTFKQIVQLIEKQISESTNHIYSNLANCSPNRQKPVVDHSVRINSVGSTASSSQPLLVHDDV
Description: as §1

NIM1K = molecular target: T29, NIM1K (Homo sapiens, UniProt Q8IY84)
T29 construct: purchased Thermo Fisher Scientific SelectScreen (plus Nanosyn / Reaction Biology for CDK/cyclin lines)
Description: as §1

MAP4K4 (HGK) = molecular target: T30, MAP4K4 (HGK) (Homo sapiens, UniProt O95819)
T30 construct: purchased Thermo Fisher Scientific SelectScreen (plus Nanosyn / Reaction Biology for CDK/cyclin lines)
Description: as §1

ERBB2 (HER2) = molecular target: T31, ERBB2 (HER2) (Homo sapiens, UniProt P04626)
T31 construct: purchased Thermo Fisher Scientific SelectScreen (plus Nanosyn / Reaction Biology for CDK/cyclin lines)
Description: as §1

RET = molecular target: T32, RET (Homo sapiens, UniProt P07949)
T32 construct: purchased Thermo Fisher Scientific SelectScreen (plus Nanosyn / Reaction Biology for CDK/cyclin lines)
Description: as §1

CHEK1 (CHK1) = molecular target: T33, CHEK1 (CHK1) (Homo sapiens, UniProt O14757)
T33 construct: purchased Thermo Fisher Scientific SelectScreen (plus Nanosyn / Reaction Biology for CDK/cyclin lines)
T33 sequence (O14757 whole entry): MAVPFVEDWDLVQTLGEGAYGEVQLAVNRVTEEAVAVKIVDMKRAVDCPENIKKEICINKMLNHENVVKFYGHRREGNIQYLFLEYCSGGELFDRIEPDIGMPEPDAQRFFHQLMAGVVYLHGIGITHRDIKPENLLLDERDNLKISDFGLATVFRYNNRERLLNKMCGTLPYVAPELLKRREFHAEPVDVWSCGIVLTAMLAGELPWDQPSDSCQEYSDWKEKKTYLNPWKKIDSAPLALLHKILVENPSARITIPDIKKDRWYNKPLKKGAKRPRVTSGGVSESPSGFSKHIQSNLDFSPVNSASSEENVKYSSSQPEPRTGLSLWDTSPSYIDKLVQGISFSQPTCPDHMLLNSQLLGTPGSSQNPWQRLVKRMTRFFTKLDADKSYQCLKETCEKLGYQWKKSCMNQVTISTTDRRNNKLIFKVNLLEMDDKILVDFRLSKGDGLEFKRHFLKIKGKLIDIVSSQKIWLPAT
Description: as §1

PDGFRA T674I = molecular target: T34, PDGFRA T674I (Homo sapiens, UniProt P16234, T674I)
T34 construct: purchased Thermo Fisher Scientific SelectScreen (plus Nanosyn / Reaction Biology for CDK/cyclin lines)
Description: as §1

[1] = molecular target: T35, EGFR (ErbB1) T790M C797S L858R (Homo sapiens, UniProt P00533, C797S/L858R/T790M)
T35 construct: purchased Thermo Fisher Scientific SelectScreen (plus Nanosyn / Reaction Biology for CDK/cyclin lines)
Description: as §1

STK22D (TSSK1) = molecular target: T36, STK22D (TSSK1) (Homo sapiens, UniProt Q9BXA7)
T36 construct: purchased Thermo Fisher Scientific SelectScreen (plus Nanosyn / Reaction Biology for CDK/cyclin lines)
Description: as §1

## NS(=O)(=O)c1ccc(Nc2ncc3cc4n(c3n2)C2(CCCCC2)C(=O)NN4)cc1 [INX-315]
MERTK (cMER)
  inhibition at 0.1 µM: 20%
CDK18/cyclin Y
  inhibition at 0.1 µM: 9%
MARK1 (MARK)
  inhibition at 0.1 µM: 9%
PRKCI (PKC iota)
  inhibition at 0.1 µM: -5%
JAK2
  inhibition at 0.1 µM: 49%
PRKCG (PKC gamma)
  inhibition at 0.1 µM: 7%
CSNK2A2 (CK2 alpha 2)
  inhibition at 0.1 µM: 4%
CDK17/cyclin Y
  inhibition at 0.1 µM: 20%
EGFR (ErbB1)
  inhibition at 0.1 µM: 4%
PDGFRA (PDGFR alpha)
  inhibition at 0.1 µM: 21%
GRK5
  inhibition at 0.1 µM: 24%
PTK2 (FAK)
  inhibition at 0.1 µM: 8%
MELK
  inhibition at 0.1 µM: 10%
CHEK2 (CHK2)
  inhibition at 0.1 µM: 7%
PAK2 (PAK65)
  inhibition at 0.1 µM: 5%
RPS6KB1 (p70S6K)
  inhibition at 0.1 µM: 1%
PTK6 (Brk)
  inhibition at 0.1 µM: -1%
ABL1 T315I
  inhibition at 0.1 µM: 10%
IKBKE (IKK epsilon)
  inhibition at 0.1 µM: 10%
FLT1 (VEGFR1)
  inhibition at 0.1 µM: 11%
EPHB1
  inhibition at 0.1 µM: 19%
PRKCD (PKC delta)
  inhibition at 0.1 µM: -5%
CSK
  inhibition at 0.1 µM: 1%
AURKB (Aurora B)
  inhibition at 0.1 µM: 53%
CAMK2A (CaMKII alpha)
  inhibition at 0.1 µM: -4%
MAP3K9 (MLK1)
  inhibition at 0.1 µM: 22%
NTRK2 (TRKB)
  inhibition at 0.1 µM: 52%
KIT T670I
  inhibition at 0.1 µM: 7%
NIM1K
  inhibition at 0.1 µM: 5%
MAP4K4 (HGK)
  inhibition at 0.1 µM: 23%
ERBB2 (HER2)
  inhibition at 0.1 µM: 0%
RET
  inhibition at 0.1 µM: 58%
CHEK1 (CHK1)
  inhibition at 0.1 µM: 2%
PDGFRA T674I
  inhibition at 0.1 µM: -1%
[1]
  inhibition at 0.1 µM: 3%
STK22D (TSSK1)
  inhibition at 0.1 µM: 11%
